Data reported in the supplement of paper PMC10307832.

How the values were obtained:
Experiment in all cases: relative viability (nuclei count vs DMSO), 5 days (fraction); higher = more cells survive
[1] = compound: COC1=CC=C(C=C1)CN2C=CC3=C2C=C(C=C3)C(=O)NO + CC(=O)Nc1cccc(-n2c(=O)n(C3CC3)c(=O)c3c(Nc4ccc(I)cc4F)n(C)c(=O)c(C)c32)c1 [Trametinib] (partner 0.02 µM)
Outline: (§1)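 After 5 days of treatment, lung cancer cells in 1536-well plates were fixed and stained in a single step (final 0.05% Triton X-100, 1% formaldehyde, 1 ug/ml Hoechst) and their nuclei counted on 4× images. Treatment had been applied by pin tool the day after seeding as one drug alone or as a fixed anchor-drug dose with five library-drug doses (not always all listed) in √10 steps. Relative viability is the nuclei count of treated wells divided by that of vehicle wells, and values are medians of duplicate plates.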

[2] = compound: COC1=CC=C(C=C1)CN2C=CC3=C2C=C(C=C3)C(=O)NO + CS(=O)(=O)N1CCN(Cc2cc3nc(-c4cccc5[nH]ncc45)nc(N4CCOCC4)c3s2)CC1 [Pictilisib] (partner 1 µM)
Outline: as §1

[3] = compound: COC1=CC=C(C=C1)CN2C=CC3=C2C=C(C=C3)C(=O)NO + NC(=O)Nc1cc(-c2cccc(F)c2)sc1C(=O)N[C@H]1CCCNC1 [AZD7762] (partner 0.2 µM)
Outline: as §1

[4] = compound: C[C@]1(c2nc3c(C(N)=O)cccc3[nH]2)CCCN1 [Veliparib] + N=C(N)NC(=N)NCCc1ccccc1 [Phenformin] (partner 250 µM)
Outline: as §1

Cell Line	relative viability ([1]; first compound 0.253 µM)	relative viability ([1]; first compound 0.8 µM)	relative viability ([1]; first compound 2.53 µM)	relative viability ([1]; first compound 8 µM)	relative viability ([2]; first compound 0.08 µM)	relative viability ([2]; first compound 0.253 µM)	relative viability ([2]; first compound 0.8 µM)	relative viability ([2]; first compound 2.53 µM)	relative viability ([2]; first compound 8 µM)	relative viability ([3]; first compound 0.253 µM)	relative viability ([3]; first compound 0.8 µM)	relative viability ([3]; first compound 2.53 µM)	relative viability ([3]; first compound 8 µM)	relative viability ([4]; first compound 0.02 µM)	relative viability ([4]; first compound 0.06325 µM)	relative viability ([4]; first compound 0.2 µM)	relative viability ([4]; first compound 0.6325 µM)	relative viability ([4]; first compound 2 µM)	relative viability ([1]; first compound 0.08 µM)	relative viability ([3]; first compound 0.08 µM)
EKVX	0.28	0.345	0.366	0.305	0.327	0.443	0.424	0.522	0.439	0.637	0.699	0.803	0.712	0.194	0.162	0.249	0.221	0.222		
NCI-H1355	0.433	0.403	0.473	0.44	0.156	0.501	0.489	0.498	0.372	0.817	0.745	0.761	0.574		0.425	0.46	0.423	0.442	0.42	0.392
NCI-H2170	0.931	0.867	0.897	0.865	0.271	0.393	0.347	0.27	0.279	0.797	0.849	0.826	0.711	0.472	0.41	0.415	0.401	0.459	0.888	0.859
NCI-H441	0.491	0.61	0.422	0.449	0.344	0.613	0.548	0.572	0.438	1.3	1.19	1.2	0.887	0.915	0.986	0.855	0.72	0.876	0.353	1.08
NCI-H1666	0.881	0.849	0.934	0.793	0.523	0.49	0.47	0.525	0.525	0.872	0.782	0.784	0.765	0.546	0.507	0.544	0.487	0.534	0.835	0.799
NCI-H2347	0.313	0.303	0.283	0.235	0.494	0.652	0.596		0.462	0.748	0.967	0.732	0.677	0.426	0.273	0.473	0.464	0.366	0.268	0.598
HCC-366	0.28	0.328	0.295	0.333	0.139	0.165	0.137	0.136	0.15	0.265	0.302	0.235	0.203	0.582	0.578	0.576	0.522	0.636	0.293	0.239
NCI-H460	0.123	0.153	0.178	0.0809	0.0712	0.248	0.405	0.377	0.348	0.485	0.588	0.614	0.515	0.361	0.491	0.484	0.489	0.52	0.157	0.536
NCI-H2085	0.665	0.692	0.524	0.406	0.44	0.491	0.53	0.492	0.426	0.953	1.07	1	0.942		0.734	0.795	0.652	0.699	0.528	0.971
NCI-H596	0.797	0.923	0.776	0.758	0.349	0.408	0.411	0.468	0.409	1.18	1.07	1.19	0.937	0.633	0.744	0.809	0.725	0.747	0.64	1.12
HCC-15	0.355	0.424	0.41	0.372	0.522	0.743	0.866	0.833	0.741	1.19	1.23	1.58	1.1		0.457	0.452	0.431	0.472	0.334	1.3
NCI-H2405		0.641	0.686	0.625	0.316	0.378	0.532	0.405	0.331		0.85	0.796	0.505	0.388	0.371	0.411	0.393	0.308	0.544	0.706
ChaGo-K-1	0.924	0.887	0.861	0.803		0.655	0.801	0.706	0.462	0.861	0.881	0.766	0.762	0.326	0.517	0.465	0.471	0.514		
NCI-H2126	0.592	0.6	0.622	0.581	0.479	0.496	0.53	0.558	0.443	1.03	0.992	1.09	0.962	0.556	0.535	0.519	0.498	0.541	0.569	1
NCI-H838	0.472	0.561	0.547	0.429		0.464	0.512	0.413	0.399	0.981	0.949	0.967	0.909	0.576	0.495	0.564	0.424	0.628	0.346	0.694
